Test results: patent US20250205157A1, “TOPICAL RUXOLITINIB FOAM” (Incyte Corporation, priority 2023, published 2025)

Columns and labels:
[1] = Solubility of ruxolitinib phosphate in organic media; type: physicochemical; conditions: for Reported Solubility % w/w, ruxolitinib phosphate: ambient temperature
Description: Under pre-formulation studies, the solubility of ruxolitinib phosphate was evaluated in organic media over the course of three days at ambient temperature.

[2] = Solubility of ruxolitinib phosphate in ethanol-water solutions and hydroethanolic foamable carrier components; type: physicochemical
Description: Based on the good solubility of ruxolitinib phosphate in hydroethanolic mixtures, the solubility of ruxolitinib phosphate in a hydroethanolic base formulation was studied. Utilizing Method A (Materials and Methods), the formulations in Table 23 were prepared. […] PG was added as a penetration enhancer to facilitate better skin permeation of the API from application of the foam.

[3] = Microscopic examination of the foam samples (drug recrystallisation); type: physicochemical
[4] = Chemical stability of foam formulations by HPLC (assay % LC, total impurities); type: physicochemical; conditions: for chemical stability, in words: to 3 months, 25° C./60% RH and 40° C./75% RH
Excerpt: The protocol used for determining the purity was a liquid chromatography (LC) method. The LC method is provided below.
This method is for the determination of Ruxolitinib Phosphate in foam formulations that contain Ruxolitinib Phosphate as active pharmaceutical ingredient (API). The method is suitable for the determination of active content in stability screening samples. The method can also be used to estimate the level of major degradants of Ruxolitinib Phosphate.
Foam formulations contain about 0.5% Ruxolitinib base (API added as Ruxolitinib Phosphate)
Weigh accurately about 500 mg of sample into a tared 25 mL volumetric flask.
Equilibrate the chromatographic system with starting mobile phase composition until a stable baseline is obtained. The following gradient (Table 12) at a flow rate of 1.0-1.5 mL/min is used: […]
Using the instrument conditions, equilibrate the chromatographic system with mobile phase. Record the chromatograms of Ruxolitinib Phosphate peak for the standard and sample solutions. The retention time of principal peak in the HPLC chromatogram of the sample should correspond with the retention time of the principal peak produced by Ruxolitinib Phosphate Standard Solution. The retention time difference between sample and standard should not be more than 5%.

[5] = Minipig plasma concentrations / toxicokinetic evaluation after topical foam; conditions: topical application of foam formulations
[6] = system: alopecia; conditions: 8 mg and 12 mg BID orally; cited from earlier work
[7] = 1,3-Dimethyl-2-Imadolidinone (DMI) (neat)
[8] = Isopropyl Myristate (IPM) (neat)

Structure (SMILES): N#CC[C@H](C1CCCC1)n1cc(-c2ncnc3[nH]ccc23)cn1 [Ruxolitinib phosphate]
- Calculated Solubility, % w/w in base form [1, 7]: 0.168 % w/w
- Reported Solubility % w/w, ruxolitinib phosphate [1, 7]: 0.22 % w/w
- Calculated Solubility, % w/w in base form ([1]; Castor Oil (neat)): 0.028 % w/w
- Reported Solubility % w/w, ruxolitinib phosphate ([1]; Castor Oil (neat)): 0.037 % w/w
- Calculated Solubility, % w/w in base form ([1]; DIPA (neat)): <0.01 % w/w
- Reported Solubility % w/w, ruxolitinib phosphate ([1]; DIPA (neat)): <0.01 % w/w
- Calculated Solubility, % w/w in base form ([1]; Ethyl Oleate (neat)): <0.01 % w/w
- Reported Solubility % w/w, ruxolitinib phosphate ([1]; Ethyl Oleate (neat)): <0.01 % w/w
- Calculated Solubility, % w/w in base form ([1]; Etocas 35 (neat)): 0.729 % w/w
- Reported Solubility % w/w, ruxolitinib phosphate ([1]; Etocas 35 (neat)): 0.962 % w/w
- Calculated Solubility, % w/w in base form ([1]; GTCC (neat)): 0.015 % w/w
- Reported Solubility % w/w, ruxolitinib phosphate ([1]; GTCC (neat)): 0.02 % w/w
- Calculated Solubility, % w/w in base form [1, 8]: <0.01 % w/w
- Reported Solubility % w/w, ruxolitinib phosphate [1, 8]: <0.01 % w/w
- Calculated Solubility, % w/w in base form ([1]; Light Mineral Oil (LMO) (neat)): <0.01 % w/w
- Reported Solubility % w/w, ruxolitinib phosphate ([1]; Light Mineral Oil (LMO) (neat)): <0.01 % w/w
- Calculated Solubility, % w/w in base form ([1]; Octadodecabol (ODD) (neat)): 0.022 % w/w
- Reported Solubility % w/w, ruxolitinib phosphate ([1]; Octadodecabol (ODD) (neat)): 0.029 % w/w
- Calculated Solubility, % w/w in base form ([1]; Oleth-3 (neat)): 0.513 % w/w
- Reported Solubility % w/w, ruxolitinib phosphate ([1]; Oleth-3 (neat)): 0.677 % w/w
- Calculated Solubility, % w/w in base form ([1]; Oleyl alcohol (neat)): 0.052 % w/w
- Reported Solubility % w/w, ruxolitinib phosphate ([1]; Oleyl alcohol (neat), no propellant): 0.068 % w/w
- Calculated Solubility, % w/w in base form ([1]; PEG 300 (neat)): 1.169 % w/w
- Reported Solubility % w/w, ruxolitinib phosphate ([1]; PEG 300 (neat)): 1.543 % w/w
- Calculated Solubility, % w/w in base form ([1]; PEG400 (neat)): 0.846 % w/w
- Reported Solubility % w/w, ruxolitinib phosphate ([1]; PEG400 (neat)): 1.117 % w/w
- Calculated Solubility, % w/w in base form ([1]; Polysorabte 80 (neat)): 0.920 % w/w
- Reported Solubility % w/w, ruxolitinib phosphate ([1]; Polysorabte 80 (neat)): 1.214 % w/w
- Calculated Solubility, % w/w in base form ([1]; Polysorbate 20 (neat)): 0.957 % w/w
- Reported Solubility % w/w, ruxolitinib phosphate ([1]; Polysorbate 20 (neat)): 1.263 % w/w
- Calculated Solubility, % w/w in base form ([1]; Propylene Glycol (PG) (neat)): 1.651 % w/w
- Reported Solubility % w/w, ruxolitinib phosphate ([1]; Propylene Glycol (PG) (neat)): 2.179 % w/w
- Calculated Solubility, % w/w in base form ([1]; Span 20 (neat)): 0.877 % w/w
- Reported Solubility % w/w, ruxolitinib phosphate ([1]; Span 20 (neat)): 1.157 % w/w
- Calculated Solubility, % w/w in base form ([1]; Transcutol-P (neat)): 0.927 % w/w
- Reported Solubility % w/w, ruxolitinib phosphate ([1]; Transcutol-P (neat)): 1.223 % w/w
- amount dissolved in hydroethanolic base ([2]; base having 60% ethanol with and without additional propylene glycol): approximately 3 % (w/w) on a free base basis
- solubility (loading level) in ethanol:water ([2]; mixtures of 60:40 or 40:60 ethanol:water): ~4 % on a free base basis (w/w)

Structure (SMILES): [2H]C1([2H])C([C@@H](CC#N)n2cc(-c3ncnc4[nH]ccc34)cn2)C([2H])([2H])C([2H])([2H])C1([2H])[2H] [Deuruxolitinib, (3R)-3-(2,2,3,3,4,4,5,5-D8) cyclopentyl-3-[4-(7H-pyrrolo[2,3-d]pyrimidin-4-yl)-1H-pyrazol-1-yl]propanenitrile]
- drug recrystallisation / solubility in the foam [3]: remained soluble in the foam formulation
- impurities ([4]; 3-months, 25° C. and 40° C., method detection limit): < 0.05 % area
- chemical stability, in words [4]: chemically stable
- systemic exposure (plasma concentrations) [5]: did not indicate therapeutic relevant concentrations
- clinical endpoint [6]: met the clinical endpoint

Structure (SMILES): N#CC[C@H](C1CCCC1)n1cc(-c2ncnc3[nH]ccc23)cn1 [Ruxolitinib]
- chemical stability, in words [4]: chemically stable
- systemic exposure (plasma concentrations) [5]: did not indicate therapeutic relevant concentrations
